Reference: patent publication US20050228188A1, “Astaxanthin medium-chain fatty acid ester, process for producing the same and composition containing the ester” (Suntory Limited, priority 2002, published 2005)

Assay: Digestibility of astaxanthins in rats: astaxanthin content in blood plasma and liver by HPLC after oral administration
Conditions: for digestibility (content of astaxanthin in blood plasma and liver) compared with astaxanthin extracted from Haematococcus (Astax9000H): rat, in vivo, po, 100 mg/kg
Protocol: Using a commercially available astaxanthin extracted from Chlorophyceae of Haematococcus (Itano, product name: Astax9000H) and astaxanthins mono- and di-esterified with a medium-chain fatty acid (Asta-C8-monoester and Asta-C8-diester), the digestibility of these astaxanthins was studied using rats. For the experiment, these astaxanthins were diluted with olive oil so as to obtain a ratio of 100 mg/kg in the conversion of a free astaxanthin, and the diluted astaxanthins were administered to rats (Wister rat). The content of astaxanthin contained in the blood (blood plasma) and the liver of each rat was measured using HPLC. The blood and liver were sampled at 3, 5, 7 and 10 hours after the administration.

SMILES	digestibility (content of astaxanthin in blood plasma and liver) compared with astaxanthin extracted from Haematococcus (Astax9000H)	digestibility, rank among the astaxanthins tested (rats, oral, 100 mg/kg in conversion of free astaxanthin, blood plasma and liver at 3, 5, 7 and 10 hours)
CCCCCCCC(=O)OC1CC(C)(C)C(C=CC(C)=CC=CC(C)=CC=CC=C(C)C=CC=C(C)C=CC2=C(C)C(=O)C(O)CC2(C)C)=C(C)C1=O (stereo not drawn) [Asta-C8-monoester, astaxanthin octanoic acid monoester]	much better digestibility	most digested
CCCCCCCC(=O)O[C@H]1CC(C)(C)C(/C=C/C(C)=C/C=C/C(C)=C/C=C/C=C(C)/C=C/C=C(C)/C=C/C2=C(C)C(=O)[C@@H](OC(=O)CCCCCCC)CC2(C)C)=C(C)C1=O [Asta-C8-diester, astaxanthin octanoic acid diester]	much better digestibility	
